{"source": "patent US11925166B2", "about": "“Cacao cell suspension protocol” (Mars, Incorporated, priority 2019, dated 2024)", "system": "fungi and bacteria on leaf explants", "assay": "Leaf disinfection of cacao leaf explants (hypochlorite under vacuum)", "set-up": "species or system Theobroma cacao; cacao leaf disinfection: dose or concentration left out as unconfirmed", "method": "The leaves were cleaned with soap and rinsed with distilled sterile water for three times. Afterwards, the leaves were cut in pieces in sizes of 2 cm^2, disinfected by immersion in alcohol 70% for five minutes, and rinsed three times with ultrapure sterile water. Then, the leaf explants were immersed in 1% calcium hypochlorite or 20% sodium hypochlorite for 50-60 minutes in vacuum condition (70 k-pascal) and rinsed 3-5 times with ultrapure sterile water."}
{"smiles": "[Ca+2].[O-]Cl.[O-]Cl", "note": "[calcium hypochlorite]", "values": [{"measurement": "leaf death after disinfection", "setting": "high concentration of calcium hypochlorite", "result": "high percentage of leaf death"}, {"measurement": "cacao leaf disinfection", "setting": "low concentration of calcium hypochlorite for 40 minutes, with vacuum", "result": "best treatment for cacao leaf disinfection"}]}
